For five compounds, EC50 results are on record in ChEMBL document CHEMBL1149026, “Ohioensins and pallidisetins: novel cytotoxic agents from the moss Polytrichum pallidisetum” (1994).

Values after ≈ are worked out from the molar mass of the structure shown.

What all share (type): functional
What all share (conditions): read-out: ED50 (the source's name)

One test concerns U-251. Nature of the test: Cytotoxicity against human U251 cells.
Another test concerns RPMI-7951. Nature of the test: Cytotoxicity against human RPMI7951 cells.
A further test relates to HT-29. As to the kind of experiment: Cytotoxicity against human HT-29 cells.
The test system of a further test is A549. Nature of the test: Cytotoxicity against human A549 cells.

As for `O=C(/C=C\c1ccccc1)c1cc(O)cc2c1CC(c1ccccc1)O2` (stereo not given) [PALLIDISETIN B], the EC50 with U-251 and in the test with RPMI-7951 was 2 µg/mL (≈ 5.84 µM) in each case.

With `COc1cc(OC)c2c3c1C(=O)C[C@@H]1c4ccccc4O[C@@H](c4cccc(O)c4-2)[C@H]31` [1-O-METHYLOHIOENSIN B], the EC50 in the test on HT-29 worked out at 1 µg/mL (≈ 2.5 µM); with U-251, 2 µg/mL (≈ 4.99 µM); in the test with RPMI-7951, 1 µg/mL (≈ 2.5 µM).

For `O=C(/C=C/c1ccccc1)c1cc(O)cc2c1CC(c1ccccc1)O2` (stereo not given) [PALLIDISETIN A], the EC50 with U-251 and with RPMI-7951 was 1 µg/mL (≈ 2.92 µM) throughout.

`COc1cc(OC)c2c3c1-c1c(O)cccc1[C@@H]1Oc4ccccc4[C@@H](C[C@@H]2OC)[C@@H]31` [1,14-DI-O-METHYLDIHYDROOHIOENSIN B]: the EC50 in the test on A549 and in the test with RPMI-7951 was 1 µg/mL (≈ 2.4 µM) throughout.

With `COc1cc(OC)c2c3c1-c1c(O)cccc1[C@@H]1Oc4ccccc4[C@@H](C[C@@H]2O)[C@@H]31` [1-O-METHYLDIHYDROOHIOENSIN B], the EC50 in the test with U-251 came out at 0.8 µg/mL (≈ 1.99 µM).
